In ChEMBL document CHEMBL1201862, “PubChem BioAssay data set” (2004):
Calls of active or inactive are those of the source.

Assays:
[1] = growth suppression of PTEN-null colon cells, dose response, cell-based, HCT116 PTEN knockout (AID 1047); assay type: functional;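 also: HCT116 colon tumor cells with PTEN knocked out; cells exposed to compound for 60 hours before readout; potency for loss of cell viability measured by luminescence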
[2] = growth suppression of beta-catenin-knockout colon cells, dose response, cell-based, HCT116, human colon tumor (AID 1045); assay type: functional;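 also: HCT116 colon tumor cells with beta catenin knocked out; cells exposed to compound for 60 hours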
Vero = Vero cell cytotoxicity, cytotoxicity control for flavivirus capping enzyme inhibitors (AID 588742); assay type: functional; details: Chlorocebus sabaeus
[3] = target: Voltage-dependent T-type calcium channel subunit alpha-1H (Homo sapiens, UniProt O95180); assay type: functional;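 also: channel activity triggered by adding a high calcium stimulation buffer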
Leucine aminopeptidase = target: T1, Leucine aminopeptidase (Plasmodium falciparum 3D7, UniProt Q8IL11); assay: P. falciparum M17LAP inhibitors, primary screen, biochemical, fluorogenic H-Leu-NHMec substrate, 1536-well (AID 1619); assay type: functional
T1 sequence (Q8IL11 whole entry): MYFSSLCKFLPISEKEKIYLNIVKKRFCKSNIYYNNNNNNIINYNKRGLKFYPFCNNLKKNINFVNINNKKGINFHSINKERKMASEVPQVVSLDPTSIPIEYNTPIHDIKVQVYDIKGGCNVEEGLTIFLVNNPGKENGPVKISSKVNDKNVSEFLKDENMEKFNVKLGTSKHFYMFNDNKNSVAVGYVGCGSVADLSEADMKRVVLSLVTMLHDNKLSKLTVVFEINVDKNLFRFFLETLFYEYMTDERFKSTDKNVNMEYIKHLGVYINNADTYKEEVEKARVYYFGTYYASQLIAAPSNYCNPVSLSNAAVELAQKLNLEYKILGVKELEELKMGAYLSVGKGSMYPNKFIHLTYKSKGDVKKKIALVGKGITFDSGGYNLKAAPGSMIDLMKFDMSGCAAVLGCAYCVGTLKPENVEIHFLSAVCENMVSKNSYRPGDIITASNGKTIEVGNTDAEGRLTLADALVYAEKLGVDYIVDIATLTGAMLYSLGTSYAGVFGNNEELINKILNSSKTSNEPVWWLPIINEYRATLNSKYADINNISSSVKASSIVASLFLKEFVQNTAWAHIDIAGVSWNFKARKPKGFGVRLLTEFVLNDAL

Genome polyprotein = Genome polyprotein (dengue virus type 2, UniProt P29990); assay: Dengue-2 NS5 methyltransferase inhibitors, primary screen, biochemical, confirmation dose response (AID 588689); assay type: functional
Cytochrome P450 2D6 = Cytochrome P450 2D6 (Homo sapiens, UniProt P10635);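 also: CYP2D6 member of a cytochrome P450 panel assay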
Cytochrome P450 2C9 = Cytochrome P450 2C9 (Homo sapiens, UniProt P11712)
[4] = NIH-3T3 fibroblast cytotoxicity, dose response, cytotoxicity control, cell-based, fluorescence, Alamar Blue, secondary assay (AID 2327); assay type: functional;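 also: NIH-3T3 mouse fibroblasts cultured with fluconazole at 8 µg/mL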
[5] = test system: Streptococcus sp. 'group A'; assay: growth inhibition of control SK(-) GAS strain, dose response, counter-screen for streptokinase expression inhibitor project, luminescence, kanamycin, BacTiterGlo, confirmation (AID 1900); assay type: functional, organism-based
Streptokinase A = target: T2, Streptokinase A (Streptococcus pyogenes serotype M1, UniProt P10520); assay: S. pyogenes streptokinase expression inhibitors, potency, dose response, plasminogen activation absorbance, OD405 (AID 1914); assay type: functional, Streptococcus pyogenes M1 GAS;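 also: secreted streptokinase activity via plasminogen activation per viability signal from cell pellet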
T2 sequence (P10520 whole entry): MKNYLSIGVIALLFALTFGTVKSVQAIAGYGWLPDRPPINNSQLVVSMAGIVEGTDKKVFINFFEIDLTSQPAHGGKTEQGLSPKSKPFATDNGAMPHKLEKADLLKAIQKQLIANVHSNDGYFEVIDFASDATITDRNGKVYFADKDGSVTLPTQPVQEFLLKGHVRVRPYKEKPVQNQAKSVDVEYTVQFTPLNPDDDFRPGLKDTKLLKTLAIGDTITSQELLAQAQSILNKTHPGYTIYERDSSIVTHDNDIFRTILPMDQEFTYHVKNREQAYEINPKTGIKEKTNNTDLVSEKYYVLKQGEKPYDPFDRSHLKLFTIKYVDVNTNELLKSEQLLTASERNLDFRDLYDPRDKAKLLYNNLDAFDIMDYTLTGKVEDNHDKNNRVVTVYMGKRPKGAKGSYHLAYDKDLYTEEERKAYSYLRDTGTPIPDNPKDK

[6] = C. albicans growth with fluconazole, confirmation, fluorescence, retest (AID 2467); assay type: functional, cell-based
Streptococcus = assay: Group A Streptococcus viability loss, dose response, counter-screen for streptokinase expression inhibitor project, luminescence, BacTiterGlo (AID 1915); assay type: functional, organism-based;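 also: potency for reduction of bacterial viability or growth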
[7] = target: T3, RNA-binding protein pos-1 (Caenorhabditis elegans, UniProt G5EF15); assay: inhibitors of POS-1/mex-3 RNA binding, dose response, biochemical, fluorescence polarization (AID 1964);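 also: purified POS-1 fused to maltose binding protein made in E. coli; potency of compounds blocking POS-1 binding to fluorescent RNA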
T3 sequence (G5EF15 whole entry): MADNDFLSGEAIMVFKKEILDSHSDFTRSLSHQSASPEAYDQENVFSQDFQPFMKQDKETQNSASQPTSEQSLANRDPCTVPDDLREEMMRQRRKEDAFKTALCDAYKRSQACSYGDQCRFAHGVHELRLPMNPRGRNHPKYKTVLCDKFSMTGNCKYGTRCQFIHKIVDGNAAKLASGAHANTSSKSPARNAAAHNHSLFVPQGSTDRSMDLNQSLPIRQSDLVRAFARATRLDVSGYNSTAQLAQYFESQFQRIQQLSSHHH

[8] = target: T4, Zinc finger protein mex-5 (Caenorhabditis elegans, UniProt Q9XUB2); assay: MEX-5/TCR-2 RNA interaction inhibitors, dose response, biochemical, C. elegans, fluorescence polarization (AID 1960)
T4 sequence (Q9XUB2 whole entry): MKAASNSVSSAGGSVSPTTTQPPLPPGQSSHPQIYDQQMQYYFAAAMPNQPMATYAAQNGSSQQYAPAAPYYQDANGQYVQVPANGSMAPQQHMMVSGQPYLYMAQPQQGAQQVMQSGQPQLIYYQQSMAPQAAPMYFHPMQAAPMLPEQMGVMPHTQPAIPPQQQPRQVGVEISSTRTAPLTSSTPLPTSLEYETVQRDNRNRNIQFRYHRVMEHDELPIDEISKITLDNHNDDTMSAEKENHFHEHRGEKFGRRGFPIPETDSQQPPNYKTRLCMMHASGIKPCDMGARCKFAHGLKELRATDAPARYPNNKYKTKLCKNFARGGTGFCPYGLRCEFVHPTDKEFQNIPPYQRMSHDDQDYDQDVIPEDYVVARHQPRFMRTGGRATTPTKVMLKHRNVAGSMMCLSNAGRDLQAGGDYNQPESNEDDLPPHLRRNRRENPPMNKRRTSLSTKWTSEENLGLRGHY

[9] = target: T5, Endoribonuclease toxin MazF (Escherichia coli K-12, UniProt P0AE70); assay: MazF toxin RNase activators, dose response, biochemical, fluorescence, single-stranded RNA substrate, uHTS hits (AID 588481); assay type: functional
T5 sequence (P0AE70 whole entry): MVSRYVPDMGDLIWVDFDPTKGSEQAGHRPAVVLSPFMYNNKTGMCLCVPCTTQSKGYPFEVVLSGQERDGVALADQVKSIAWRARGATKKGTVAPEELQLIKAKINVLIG

[10] = target: T5, Endoribonuclease toxin MazF; assay: fluorescent RNA oligo signal without MazF, dose response, counter-screen for MazEF activator project, biochemical, fluorescence, single-stranded RNase substrate (AID 588502); assay type: functional

Voltage-dependent T-type calcium channel subunit alpha-1H, sequence (O95180 whole entry): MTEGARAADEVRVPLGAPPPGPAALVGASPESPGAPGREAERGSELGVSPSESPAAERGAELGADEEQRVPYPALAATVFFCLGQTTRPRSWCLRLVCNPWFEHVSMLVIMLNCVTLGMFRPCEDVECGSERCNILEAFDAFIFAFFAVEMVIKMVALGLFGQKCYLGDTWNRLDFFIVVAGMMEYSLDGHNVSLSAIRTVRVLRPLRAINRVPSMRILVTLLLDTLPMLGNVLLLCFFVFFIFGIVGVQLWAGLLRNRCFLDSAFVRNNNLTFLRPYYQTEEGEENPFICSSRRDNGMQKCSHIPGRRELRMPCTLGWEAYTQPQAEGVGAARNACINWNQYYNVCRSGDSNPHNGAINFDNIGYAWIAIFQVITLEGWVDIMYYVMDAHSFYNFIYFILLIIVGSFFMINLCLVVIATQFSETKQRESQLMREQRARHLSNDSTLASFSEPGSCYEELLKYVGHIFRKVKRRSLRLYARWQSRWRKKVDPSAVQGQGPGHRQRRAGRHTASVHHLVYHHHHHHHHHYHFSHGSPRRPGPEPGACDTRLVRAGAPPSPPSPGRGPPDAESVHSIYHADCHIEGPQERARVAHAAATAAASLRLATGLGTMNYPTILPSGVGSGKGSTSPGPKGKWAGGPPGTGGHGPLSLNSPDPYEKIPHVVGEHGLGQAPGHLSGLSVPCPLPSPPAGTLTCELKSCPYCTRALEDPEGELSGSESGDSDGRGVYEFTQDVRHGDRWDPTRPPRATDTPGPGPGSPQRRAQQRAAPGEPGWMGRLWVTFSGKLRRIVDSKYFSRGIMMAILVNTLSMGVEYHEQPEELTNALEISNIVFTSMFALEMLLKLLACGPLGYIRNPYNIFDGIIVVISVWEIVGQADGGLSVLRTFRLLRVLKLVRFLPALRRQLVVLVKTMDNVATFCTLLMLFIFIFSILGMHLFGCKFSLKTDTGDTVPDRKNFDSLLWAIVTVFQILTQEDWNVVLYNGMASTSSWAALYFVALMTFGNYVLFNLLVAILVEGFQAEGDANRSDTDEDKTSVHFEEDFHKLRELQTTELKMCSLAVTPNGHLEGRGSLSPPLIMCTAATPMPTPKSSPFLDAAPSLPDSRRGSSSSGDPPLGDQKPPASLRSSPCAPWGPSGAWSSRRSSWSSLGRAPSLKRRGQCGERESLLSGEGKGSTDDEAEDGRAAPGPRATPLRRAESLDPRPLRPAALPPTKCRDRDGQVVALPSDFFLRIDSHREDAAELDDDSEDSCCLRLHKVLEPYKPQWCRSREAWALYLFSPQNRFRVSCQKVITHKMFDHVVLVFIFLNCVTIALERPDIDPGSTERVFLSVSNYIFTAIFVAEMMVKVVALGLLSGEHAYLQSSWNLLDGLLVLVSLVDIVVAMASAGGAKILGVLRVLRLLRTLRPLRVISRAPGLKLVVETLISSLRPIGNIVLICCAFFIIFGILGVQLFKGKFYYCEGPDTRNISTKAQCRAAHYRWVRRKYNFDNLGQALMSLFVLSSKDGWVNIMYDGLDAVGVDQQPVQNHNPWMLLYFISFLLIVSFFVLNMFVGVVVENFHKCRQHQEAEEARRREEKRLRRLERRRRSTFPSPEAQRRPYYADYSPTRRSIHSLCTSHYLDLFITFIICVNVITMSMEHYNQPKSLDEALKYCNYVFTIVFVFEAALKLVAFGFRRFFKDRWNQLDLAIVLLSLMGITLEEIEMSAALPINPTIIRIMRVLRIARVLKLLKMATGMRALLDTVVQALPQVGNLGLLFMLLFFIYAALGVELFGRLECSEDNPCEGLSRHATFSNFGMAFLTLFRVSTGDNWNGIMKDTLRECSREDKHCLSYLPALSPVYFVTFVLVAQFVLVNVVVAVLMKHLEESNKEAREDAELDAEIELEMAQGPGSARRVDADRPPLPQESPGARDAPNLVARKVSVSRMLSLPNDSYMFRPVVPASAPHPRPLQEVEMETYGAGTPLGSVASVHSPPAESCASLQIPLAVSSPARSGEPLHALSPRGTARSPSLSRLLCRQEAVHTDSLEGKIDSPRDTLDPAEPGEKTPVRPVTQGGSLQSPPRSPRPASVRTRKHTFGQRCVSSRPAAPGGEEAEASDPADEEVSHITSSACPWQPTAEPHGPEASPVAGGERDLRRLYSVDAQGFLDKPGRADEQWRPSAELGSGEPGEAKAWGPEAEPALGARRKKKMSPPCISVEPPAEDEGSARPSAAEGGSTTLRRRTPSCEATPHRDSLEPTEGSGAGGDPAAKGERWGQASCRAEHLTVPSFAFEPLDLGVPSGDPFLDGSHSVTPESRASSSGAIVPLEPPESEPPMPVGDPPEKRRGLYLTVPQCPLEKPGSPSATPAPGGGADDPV
Genome polyprotein, sequence (P29990 2492-3391 limits assumed): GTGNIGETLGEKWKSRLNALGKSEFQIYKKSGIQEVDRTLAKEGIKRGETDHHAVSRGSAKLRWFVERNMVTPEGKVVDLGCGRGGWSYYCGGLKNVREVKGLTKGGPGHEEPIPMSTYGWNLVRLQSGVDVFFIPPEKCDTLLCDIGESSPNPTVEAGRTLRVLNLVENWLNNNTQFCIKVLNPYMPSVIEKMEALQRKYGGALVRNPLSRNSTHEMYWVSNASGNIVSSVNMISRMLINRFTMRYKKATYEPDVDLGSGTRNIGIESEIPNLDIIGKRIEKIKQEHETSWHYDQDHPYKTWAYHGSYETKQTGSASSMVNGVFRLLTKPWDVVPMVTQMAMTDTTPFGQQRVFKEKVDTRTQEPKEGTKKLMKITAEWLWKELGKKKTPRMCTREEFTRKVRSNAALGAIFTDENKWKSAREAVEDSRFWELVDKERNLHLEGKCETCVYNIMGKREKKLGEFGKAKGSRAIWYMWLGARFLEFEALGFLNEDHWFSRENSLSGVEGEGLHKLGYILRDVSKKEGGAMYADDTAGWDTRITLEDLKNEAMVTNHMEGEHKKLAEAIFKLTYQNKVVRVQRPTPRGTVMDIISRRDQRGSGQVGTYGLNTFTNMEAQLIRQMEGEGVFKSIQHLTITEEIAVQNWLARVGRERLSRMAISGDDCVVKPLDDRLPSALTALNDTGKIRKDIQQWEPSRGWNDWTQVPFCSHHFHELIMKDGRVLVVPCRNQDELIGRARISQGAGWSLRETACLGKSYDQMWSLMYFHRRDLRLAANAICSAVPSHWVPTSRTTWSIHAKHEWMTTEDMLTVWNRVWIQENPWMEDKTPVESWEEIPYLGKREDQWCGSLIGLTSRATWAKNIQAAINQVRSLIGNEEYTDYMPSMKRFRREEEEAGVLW
Cytochrome P450 2C9, sequence (P11712 whole entry): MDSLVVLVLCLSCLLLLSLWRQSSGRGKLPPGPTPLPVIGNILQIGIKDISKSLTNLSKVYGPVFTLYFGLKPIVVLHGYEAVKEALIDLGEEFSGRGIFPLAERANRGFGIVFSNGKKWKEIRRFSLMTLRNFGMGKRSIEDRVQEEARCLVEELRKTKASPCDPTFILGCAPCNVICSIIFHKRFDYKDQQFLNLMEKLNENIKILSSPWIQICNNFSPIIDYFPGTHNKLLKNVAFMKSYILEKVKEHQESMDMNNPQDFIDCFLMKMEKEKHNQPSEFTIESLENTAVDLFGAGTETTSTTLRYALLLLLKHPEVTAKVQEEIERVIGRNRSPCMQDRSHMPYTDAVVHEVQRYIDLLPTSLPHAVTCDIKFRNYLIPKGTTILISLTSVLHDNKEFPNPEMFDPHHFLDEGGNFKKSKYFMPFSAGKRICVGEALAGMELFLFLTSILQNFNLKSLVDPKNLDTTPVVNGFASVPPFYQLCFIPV
Cytochrome P450 2D6, sequence (P10635 whole entry): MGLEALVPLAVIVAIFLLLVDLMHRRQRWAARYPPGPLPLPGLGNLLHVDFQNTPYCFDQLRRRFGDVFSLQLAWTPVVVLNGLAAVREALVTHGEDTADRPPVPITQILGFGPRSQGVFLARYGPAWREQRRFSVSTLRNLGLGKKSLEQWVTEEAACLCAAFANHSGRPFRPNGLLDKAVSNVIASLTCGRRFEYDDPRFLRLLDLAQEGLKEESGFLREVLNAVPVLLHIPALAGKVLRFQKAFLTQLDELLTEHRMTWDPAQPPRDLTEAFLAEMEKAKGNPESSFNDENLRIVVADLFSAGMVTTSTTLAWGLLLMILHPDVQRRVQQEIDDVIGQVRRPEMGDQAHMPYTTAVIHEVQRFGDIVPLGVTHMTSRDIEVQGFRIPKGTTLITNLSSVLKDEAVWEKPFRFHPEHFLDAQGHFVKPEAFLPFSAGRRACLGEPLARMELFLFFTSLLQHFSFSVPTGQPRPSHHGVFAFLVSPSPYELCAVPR

SMILES: CC(=O)Nc1ccc(S(=O)(=O)NCCSCc2c(Cl)cccc2Cl)cc1
- EC50 [1]: 61.4 µM (active)
- EC50 [2]: 149 µM (active)
- CC50 (Vero): > 40 µM (active)

SMILES: CN(CCOc1ccc(Cl)cc1)c1ccc(S(=O)(=O)N2CCCCC2)cn1
- EC50 [3]: 2.82 µM (active)

SMILES: Cc1cccc(COCC(Cc2ccccc2)N2CCN(C(=O)c3cc(Cl)cc(Cl)c3)CCC2=O)c1 (stereo not given)
- EC50 [3]: 3.04 µM (active)

SMILES: CC(C)(C)C1CCc2c(sc(NC(=O)C3CC=CCC3C(=O)O)c2C#N)C1 (stereo not given)
- IC50 (Leucine aminopeptidase): 11 µM (active)
- IC50 (Genome polyprotein): 39.4 µM (active)

SMILES: CS(=O)(=O)Nc1cccc(-c2cc(NCc3cccs3)ncn2)c1
- AC50 (Cytochrome P450 2D6): 20 µM (inconclusive)
- AC50 (Cytochrome P450 2C9): inconclusive

SMILES: O=C1c2ccccc2C(Nc2ccc(F)c(Cl)c2)N1Cc1ccco1 (stereo not given)
- EC50 [3]: 3.88 µM (active)

SMILES: COc1cc(-c2nnc(SCC3(c4ccccc4)OCCO3)o2)cc(OC)c1OC
- AC50 (Cytochrome P450 2C9): inconclusive

SMILES: CCc1ccc(/C=C2\SC(=S)N(CCCC(=O)Nc3ccccc3C(=O)O)C2=O)cc1
- EC50 [4]: 6.89 µM (inconclusive)
- EC50 [5]: 1.9 µM (active)
- EC50 (Streptokinase A): > 50 µM (not active)
- EC50 [6]: 2.37 µM (active)
- EC50 (Streptococcus): 133 µM (active)
- CC50 (Vero): > 40 µM (active)
- IC50 (Genome polyprotein): 30.8 µM (active)

SMILES: CCn1c(/C=C/c2c(C)[nH]c3ccccc23)nc2ccccc2c1=O
- EC50 [7]: > 300 µM (not active)
- EC50 [8]: > 300 µM (inconclusive)
- EC50 [1]: 7.1 µM (active)
- EC50 [2]: 5.59 µM (active)
- EC50 [9]: > 99 µM (inactive)
- EC50 [10]: > 99 µM (inactive)

SMILES: O=C(Nc1ccc2c(c1)CCC2)c1cccc(S(=O)(=O)N2CCN(c3ccccc3)CC2)c1
- EC50 [3]: 6.08 µM (active)
